Measurements from patent US5428059A, “Benzopyran derivatives and an anti-allergic agent possessing the same as the active ingredient” (Dainippon Ink & Chemicals, Inc., priority 1991, dated 1995).

Tests used:
[1] = system: Hartley-type male guinea pigs; assay: Guinea Pig Homogeneous Skin Passive Anaphylaxis Assay (PCA reaction); type: in vivo, guinea pig (Hartley-type); settings: Cavia porcellus, 10 mg/kg oral, 48 h after sensitization, read-out: Allergic reaction inhibitory index (%)
How it was run: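 Male Hartley guinea pigs (250~300 g) given intradermal back injections of 120-fold-diluted anti-OVA serum; 48 h later test substance dosed orally at 10 mg/kg, then challenged i.v. with OVA plus Evans Blue. Dye-spot area (long × short diameter, mm^2) measured at 30 min; inhibition % calculated against solvent control.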

[2] = Mouse Acute Toxicity Assay (oral, 7 days observation); settings: in vivo, ICR-type male mice, single forced oral administration 1000 and 2000 mg/kg, estimated from survival ratio
Experimental: Mouse Acute Toxicity Assay
The present Example was carried out in order to confirm the safety of the novel compound according to the present invention. In the following the assay method used will be explained.
Assay method: After ICR-type male mice (body weight=20~25 g) were fasted for 16 hours, each substance to be tested was forcibly administered orally at 1000 mg/kg and 2000 mg/kg to groups of five mice, using a esophageal sound. After administration, the mice were kept in cages for seven days, following which observations were made on the general conditions and existence of dead animals. From the survival ratio of the mice at the end of the observation, the lethal dose 50 (LD50) was estimated.
The results of the mouse acute toxicity assay are recorded in Tables 1 and 2.

SMILES | inhibition in vivo at 10 mg/kg [1] | LD50 at 168 h [2]
CC(=O)Oc1ccc2oc(=O)c(OC/C=C(\C)CCC=C(C)C)c(O)c2c1 [Compound 271, 3-(geranyloxy)-4-hydroxy-6-(acetoxy)-2H-1-benzopyran-2-one] | 33% | > 1000 mg/kg
COc1c(O)c2cc(OC(C)=O)ccc2oc1=O [Compound 270, 3-(methoxy)-4-hydroxy-6-(acetoxy)-2H-1-benzopyran-2-one] | 35% | > 2000 mg/kg
CCCCCCCCCCOc1cccc2oc(=O)c(OC/C=C(\C)CCC=C(C)C)c(OC(C)=O)c12 [Compound 239, 3-(geranyloxy)-4-(acetoxy)-5-(decyloxy)-2H-1-benzopyran-2-one] | 31% | –
COc1ccc2c(O)c(O)c(=O)oc2c1 [Compound 28, 3,4-dihydroxy-7-(methoxy)-2H-1-benzopyran-2-one] | 53% | –
CCCCCCCCCCOc1c(OC(C)=O)c(=O)oc2c(OC)cccc12 [Compound 118, 3-(acetoxy)-4-(decyloxy)-8-(methoxy)-2H-1-benzopyran-2-one] | 32% | –
CC(C)=CCC/C(C)=C/COc1c(OC(C)C)c(=O)oc2cc(O)ccc12 [Compound 25, 3-(isopropoxy)-4-(geranyloxy)-7-hydroxy-2H-1-benzopyran-2-one] | 32% | –
CC(C)=CCC/C(C)=C/COc1ccc2c(O)c(O)c(=O)oc2c1 [Compound 75, 3,4-(hydroxy)-7-(geranyloxy)-2H-1-benzopyran-2-one] | 45% | –
COc1cccc2oc(=O)c(OC(C)=O)c(OC/C=C(\C)CCC=C(C)C)c12 [Compound 206, 3-(acetoxy)-4-(geranyloxy)-5-(methoxy)-2H-1-benzopyran-2-one] | 32% | –
CC(C)=CCC/C(C)=C/COc1c(O)c(=O)oc2cccc(OC(C)C)c12 [Compound 220, 3-hydroxy-4-(geranyloxy)-5-(isopropoxy)-2H-1-benzopyran-2-one] | 30% | –
COc1c(OC(C)=O)c2c(OC/C=C(\C)CCC=C(C)C)cccc2oc1=O [Compound 252, 3-(methoxy)-4-(acetoxy)-5-(geranyloxy)-2H-1-benzopyran-2-one] | 32% | –
CCCCCCCCCCOc1ccc2oc(=O)c(OC)c(O)c2c1 [Compound 275, 3-(methoxy)-4-(hydroxy)-6-(decyloxy)-2H-1-benzopyran-2-one] | 36% | –
CCCCCCCCCCOc1ccc2c(OC/C=C(\C)CCC=C(C)C)c(OC(=O)c3ccccc3)c(=O)oc2c1 [Compound 70, 3-(benzoyloxy)-4-(geranyloxy)-7-(decyloxy)-2H-1-benzopyran-2-one] | 30% | –
CC(C)=CCC/C(C)=C/COc1ccc2c(OC/C=C(\C)CCC=C(C)C)c(OC(=O)c3ccccc3)c(=O)oc2c1 [Compound 86, 3-(benzoyloxy)-4,7-(digeranyloxy)-2H-1-benzopyran-2-one] | 30% | –
O=C(Oc1c(O)c2ccc(O)cc2oc1=O)c1ccccc1 [Compound 4, 3-(benzoyloxy)-4,7-dihydroxy-2H-1-benzopyran-2-one] | 43% | –
COc1cccc2c(OC(=O)c3ccccc3)c(OC(C)C)c(=O)oc12 [Compound 119, 3-(isopropoxy)-4-(benzoyloxy)-8-(methoxy)-2H-1-benzopyran-2-one] | 30% | –
CCCCCCCCCCOc1cccc2c(O)c(OC/C=C(\C)CCC=C(C)C)c(=O)oc12 [Compound 151, 3-(geranyloxy)-4-hydroxy-8-(decyloxy)-2H-1-benzopyran-2-one] | 34% | –
CC(=O)Oc1c(O)c(=O)oc2c(OC/C=C(\C)CCC=C(C)C)cccc12 [Compound 160, 3-hydroxy-4-(acetoxy)-8-(geranyloxy)-2H-1-benzopyran-2-one] | 34% | –
CC(C)=CCC/C(C)=C/COc1c(OC/C=C(\C)CCC=C(C)C)c2ccc(OC(C)C)cc2oc1=O [Compound 57, 3,4-(digeranyloxy)-7-(isopropoxy)-2H-1-benzopyran-2-one] | 30% | –
COc1cccc2c(O)c(O)c(=O)oc12 [Compound 111, 3,4-(dihydroxy)-8-(methoxy)-2H-1-benzopyran-2-one] | 38% | –
COc1ccc2c(OC(C)C)c(OC(C)=O)c(=O)oc2c1 [Compound 32, 3-(acetoxy)-4-(isopropoxy)-7-(methoxy)-2H-1-benzopyran-2-one] | 33% | –
COc1c(OC/C=C(\C)CCC=C(C)C)c2cccc(OC)c2oc1=O [Compound 125, 3,8-(dimethoxy)-4-(geranyloxy)-2H-1-benzopyran-2-one] | 31% | –
COc1cccc2c(OC(C)=O)c(O)c(=O)oc12 [Compound 112, 3-hydroxy-4-(acetoxy)-8-(methoxy)-2H-1-benzopyran-2-one] | 32% | –

SMILES | inhibition in vivo at 10 mg/kg [1] | LD50 at 168 h [2]
COc1c(O)c(=O)oc2cc(OC(C)C)ccc12 [Compound 49, 3-hydroxy-4-(methoxy)-7-(isopropoxy)-2H-1-benzopyran-2-one] | 36% | –
CC(C)=CCC/C(C)=C/COc1cccc2oc(=O)c(O)c(O)c12 [Compound 245, 3,4-(dihydroxy)-5-(geranyloxy)-2H-1-benzopyran-2-one] | 37% | –
CC(C)=CCC/C(C)=C/COc1c(OC(C)C)c(=O)oc2cccc(O)c12 [Compound 192, 3-(isopropoxy)-4-(geranyloxy)-5-hydroxy-2H-1-benzopyran-2-one] | 37% | –
COc1cccc2oc(=O)c(OC/C=C(\C)CCC=C(C)C)c(OC(=O)c3ccccc3)c12 [Compound 205, 3-(geranyloxy)-4-(benzoyloxy)-5-(methoxy)-2H-1-benzopyran-2-one] | 31% | –
CCCCCCCCCCOc1c(O)c(=O)oc2cccc(O)c12 [Compound 183, 3,5-(dihydroxy)-4-(decyloxy)-2H-1-benzopyran-2-one] | 30% | –
CC(=O)Oc1c(OC(C)=O)c2c(OC(C)C)cccc2oc1=O [Compound 213, 3,4-(diacetoxy)-5-(isopropoxy)-2H-1-benzopyran-2-one] | 33% | –
CC(C)=CCC/C(C)=C/COc1c(OC(=O)c2ccccc2)c(=O)oc2c(O)cccc12 [Compound 106, 3-(benzoyloxy)-4-(geranyloxy)-8-hydroxy-2H-1-benzopyran-2-one] | 31% | –
CC(C)=CCC/C(C)=C/COc1cccc2c(OC(C)C)c(O)c(=O)oc12 [Compound 163, 3-hydroxy-4-(isopropoxy)-8-(geranyloxy)-2H-1-benzopyran-2-one] | 32% | –
CC(C)=CCC/C(C)=C/COc1c(O)c2ccc(OC(C)C)cc2oc1=O [Compound 53, 3-(geranyloxy)-4-hydroxy-7-(isopropoxy)-2H-1-benzopyran-2-one] | 38% | –
COc1ccc2oc(=O)c(OC(C)=O)c(O)c2c1 [Compound 278, 3-(acetoxy)-4-(hydroxy)-6-(methoxy)-2H-1-benzopyran-2-one] | 36% | –
CCCCCCCCCCOc1c(OC(=O)c2ccccc2)c2cccc(OC(C)C)c2oc1=O [Compound 137, 3-(decyloxy)-4-(benzoyloxy)-8-(isopropoxy)-2H-1-benzopyran-2-one] | 32% | –
COc1cccc2oc(=O)c(OC(=O)c3ccccc3)c(O)c12 [Compound 194, 3-(benzoyloxy)-4-hydroxy-5-(methoxy)-2H-1-benzopyran-2-one] | 46% | –
CC(C)=CCC/C(C)=C/COc1cccc2oc(=O)c(OC(=O)c3ccccc3)c(O)c12 [Compound 244, 3-(benzoyloxy)-4-hydroxy-5-(geranyloxy)-2H-1-benzopyran-2-one] | 33% | –
CC(C)Oc1cccc2c(O)c(OC(=O)c3ccccc3)c(=O)oc12 [Compound 129, 3-(benzoyloxy)-4-hydroxy-8-(isopropoxy)-2H-1-benzopyran-2-one] | 36% | –
CCCCCCCCCCOc1cccc2c(O)c(OC(=O)c3ccccc3)c(=O)oc12 [Compound 143, 3-(benzoyloxy)-4-hydroxy-8-(decyloxy)-2H-1-benzopyran-2-one] | 30% | –
CC(C)=CCC/C(C)=C/COc1c(OC(C)C)c2c(OC(C)C)cccc2oc1=O [Compound 221, 3-(geranyloxy)-4,5-(diisopropoxy)-2H-1-benzopyran-2-one] | 33% | –
CC(=O)Oc1ccc2c(OC(C)=O)c(OC(C)=O)c(=O)oc2c1 [Compound 11, 3,4,7-(triacetoxy)-2H-1-benzopyran-2-one] | 31% | –
COc1ccc2c(OC/C=C(\C)CCC=C(C)C)c(OC(C)=O)c(=O)oc2c1 [Compound 40, 3-(acetoxy)-4-(geranyloxy)-7-(methoxy)-2H-1-benzopyran-2-one] | 34% | –
CCCCCCCCCCOc1cccc2oc(=O)c(O)c(O)c12 [Compound 230, 3,4-(dihydroxy)-5-(decyloxy)-2H-1-benzopyran-2-one] | 43% | –
CCCCCCCCCCOc1cccc2c(OC/C=C(\C)CCC=C(C)C)c(OC(C)C)c(=O)oc12 [Compound 156, 3-(isopropoxy)-4-(geranyloxy)-8-(decyloxy)-2H-1-benzopyran-2-one] | 32% | –
CCCCCCCCCCOc1ccc2oc(=O)c(O)c(O)c2c1 [Compound 273, 3,4-(dihydroxy)-6-(decyloxy)-2H-1-benzopyran-2-one] | 30% | –
